Results: patent publication US20230066011A1, “PYRROLOPYRIMIDINE DERIVATIVE, AND PHARMACEUTICAL COMPOSITION FOR PREVENTING OR TREATING PROTEIN KINASE-RELATED DISEASE COMPRISING SAME AS ACTIVE INGREDIENT” (VORONOI CO., LTD., priority 2019, published 2023)

How the values were obtained:
human GST-DYRK1A = biological target: T1, human GST-DYRK1A (Homo sapiens, UniProt Q13627); assay: GST-DYRK1A enzyme inhibition, ADP-Glo kinase assay; format: biochemical; conditions: ATP 10 μM, GST-DYRK1A full length, read-out: DYRK1 IC50
T1 construct: purified human GST-DYRK1A (full length, Thermo Scientifics) enzyme; purchased Thermo Scientifics
How it was run: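 Full-length enzyme (10 ng) was incubated with 10 μM ATP and a specific substrate for 1 h at 25 °C in 40 mM Tris-HCl pH 7.4, 20 mM MgCl2, 0.5 mg/mL BSA, 50 μM DTT. Luminescence was read against a solvent control, and IC50 values were derived from 3 data sets.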

human GST-CLK1 = biological target: T2, human GST-CLK1 (Homo sapiens, UniProt P49759); assay: GST-CLK1 enzyme inhibition, ADP-Glo kinase assay; format: biochemical; conditions: ATP 10 μM, GST-CLK1 129-end
T2 construct: purified human GST-CLK1 (129-end, SignalChem) enzyme; purchased SignalChem
T2 sequence (P49759 129-484 limits assumed): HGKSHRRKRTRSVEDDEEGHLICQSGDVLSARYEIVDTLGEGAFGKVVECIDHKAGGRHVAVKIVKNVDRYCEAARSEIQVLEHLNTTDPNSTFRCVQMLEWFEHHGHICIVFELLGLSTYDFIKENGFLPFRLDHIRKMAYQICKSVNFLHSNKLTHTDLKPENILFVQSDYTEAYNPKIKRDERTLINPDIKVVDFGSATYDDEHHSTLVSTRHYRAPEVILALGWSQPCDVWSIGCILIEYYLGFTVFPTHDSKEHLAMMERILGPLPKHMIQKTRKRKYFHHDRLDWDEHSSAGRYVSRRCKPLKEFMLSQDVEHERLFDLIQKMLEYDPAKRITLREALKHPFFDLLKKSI
How it was run: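 ADP-Glo luminescence read-out, relative to untreated solvent control, gave IC50 (nM) from triplicate data sets. Reactions ran an hour at 25° C with 3 ng GST-CLK1 (residues 129-end), 10 μM ATP and specific substrate in Tris-HCl pH 7.4 buffer with MgCl2, BSA and DTT.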

IL-6 = assay: Inhibition of LPS-induced IL-6 secretion of THP-1 monocytes (ELISA); format: cell-based, human; conditions: Homo sapiens, THP-1; compound 0.5 μM, LPS 500 ng/mL, 24 hours; read-out: THP1/IL6 (% inhib)
Description: (§1) To evaluate an inhibitory effect on cytokine secretion of monocytes, THP-1 cells (ATCC, #TIB-202) as a human-derived monocyte line were cultured in an RPMI-1640 (Hyclone, SH30027.01) medium supplemented with 10% fetal bovine serum (Hyclone, SH30084.03), 1% penicillin streptomycin (Welgene, LS202-02), and 50 μM 2-mercaptoethanol (Gibco, #21985023). In the test, the cells were seeded in a 48-well plate (SPL, #30048) at a density of 1.5 to 2×10^5 cells/250 μL per well, and cultured at 37° C. for 16 hours in a 5% CO2 incubator. Thereafter, the compound was diluted with DMSO so that the final concentration of the compound was 0.5 μM. Then, the cells were treated with the diluted compound before an hour of treatment with lipopolysaccharides (LPS) (Sigma, #L6529). After the treatment with the compound, the cells were treated with LPS so that the final concentration was 500 ng/mL. Then, a cell culture broth was collected after 24 hours of culture, and levels of cytokine IL-6 (R&D Systems, #D6050) and TNF-α (R&D Systems, #DTA00D) comprised in the culture broth were measured using respective ELISA kits. After an experiment was performed according to the manufacturer's guidelines, cell analysis was performed by measuring the optical density at 450 nm using a microplate reader.

LRRK2 = LRRK2 (Homo sapiens, UniProt Q5S007); assay: LRRK2 enzyme inhibition, ADP-Glo kinase assay; format: biochemical; set-up: purchased Invitrogen PR8604B; conditions: ATP 10 μM
Sequence of LRRK2 (Q5S007 970-2527 limits assumed): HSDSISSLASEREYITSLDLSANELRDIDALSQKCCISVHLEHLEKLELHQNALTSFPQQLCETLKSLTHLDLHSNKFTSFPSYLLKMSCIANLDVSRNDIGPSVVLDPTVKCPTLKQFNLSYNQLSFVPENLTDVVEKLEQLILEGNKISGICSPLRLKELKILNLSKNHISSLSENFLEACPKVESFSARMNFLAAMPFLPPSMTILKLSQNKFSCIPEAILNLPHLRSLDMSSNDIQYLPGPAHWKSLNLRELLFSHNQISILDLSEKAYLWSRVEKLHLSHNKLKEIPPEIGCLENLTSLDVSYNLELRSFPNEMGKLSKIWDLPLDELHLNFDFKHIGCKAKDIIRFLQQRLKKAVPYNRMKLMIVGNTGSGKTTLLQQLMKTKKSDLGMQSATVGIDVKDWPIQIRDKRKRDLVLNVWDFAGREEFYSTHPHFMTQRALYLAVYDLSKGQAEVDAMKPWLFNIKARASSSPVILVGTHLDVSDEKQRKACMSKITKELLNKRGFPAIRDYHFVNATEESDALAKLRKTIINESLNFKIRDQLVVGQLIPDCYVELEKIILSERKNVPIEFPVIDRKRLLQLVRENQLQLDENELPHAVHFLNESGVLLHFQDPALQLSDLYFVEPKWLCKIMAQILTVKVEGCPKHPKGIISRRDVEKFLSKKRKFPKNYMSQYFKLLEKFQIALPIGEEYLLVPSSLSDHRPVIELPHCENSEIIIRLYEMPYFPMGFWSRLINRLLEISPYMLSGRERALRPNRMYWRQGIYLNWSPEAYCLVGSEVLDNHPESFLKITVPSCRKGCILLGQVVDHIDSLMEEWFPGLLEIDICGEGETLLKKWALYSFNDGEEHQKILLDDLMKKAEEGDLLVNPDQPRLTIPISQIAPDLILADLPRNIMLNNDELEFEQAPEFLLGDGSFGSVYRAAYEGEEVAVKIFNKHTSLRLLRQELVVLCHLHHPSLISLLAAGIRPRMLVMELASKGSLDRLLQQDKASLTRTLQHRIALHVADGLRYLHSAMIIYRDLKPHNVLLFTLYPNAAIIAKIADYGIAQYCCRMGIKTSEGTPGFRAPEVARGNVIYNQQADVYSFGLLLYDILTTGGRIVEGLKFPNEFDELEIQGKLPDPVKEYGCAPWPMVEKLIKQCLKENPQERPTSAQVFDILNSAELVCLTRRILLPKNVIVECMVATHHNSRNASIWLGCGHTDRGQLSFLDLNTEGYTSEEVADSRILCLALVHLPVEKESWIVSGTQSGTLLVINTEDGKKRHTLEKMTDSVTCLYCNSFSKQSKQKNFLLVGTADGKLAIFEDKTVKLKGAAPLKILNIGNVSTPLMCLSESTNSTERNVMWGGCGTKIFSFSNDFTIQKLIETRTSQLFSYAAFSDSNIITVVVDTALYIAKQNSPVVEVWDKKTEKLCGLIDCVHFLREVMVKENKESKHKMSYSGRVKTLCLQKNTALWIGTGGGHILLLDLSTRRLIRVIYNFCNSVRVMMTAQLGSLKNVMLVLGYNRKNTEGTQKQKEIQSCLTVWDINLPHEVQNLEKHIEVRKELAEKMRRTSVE
How it was run: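 ADP-Glo luminescent read-out of ADP formed by purified human LRRK2 enzyme (25 ng), 10 μM ATP, 0.2 μg substrate, 25° C for 2 h, Tris-HCl pH 7.4 buffer with MgCl2, BSA, DTT. Inhibition versus untreated solvent control over twelve final concentrations (50 μM downward) gives IC50.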

LRRK2 (G2019S) = LRRK2 (G2019S) (Homo sapiens, UniProt Q5S007, G2019S); assay: LRRK2 G2019S enzyme inhibition, ADP-Glo kinase assay; format: biochemical; set-up: purchased SignalChem L10-12GG; conditions: ATP 25 μM
Sequence of LRRK2 (G2019S) (Q5S007 970-2527 G2019S limits assumed): as the sequence (Q5S007 970-2527 limits assumed) above, with G1050S counted along it
How it was run: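 IC50 derived from luminescent ADP-Glo readout against untreated solvent control, twelve final compound concentrations from 50 μM downward. Reaction: recombinant human LRRK2 G2019S enzyme, 25 μM ATP, substrate, pH 7.4 Tris buffer with MgCl2/BSA/DTT, 25° C. for 2 hours.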

TNF-α = assay: Inhibition of LPS-induced TNF-α secretion of THP-1 monocytes (ELISA); format: cell-based, human; conditions: Homo sapiens, THP-1; compound 0.5 μM, LPS 500 ng/mL, 24 hours; read-out: THP-1/TNF-α (% inhib)
Description: as §1

human DYRK1A and tau = assay: Inhibition of tau phosphorylation, ClariCELL Kinase Cell-Based Assay, HEK 293 cells expressing human DYRK1A and tau; conditions: for inhibition at 1 µM: HEK293, read-out: % inhibition at 1 uM, tau phosphorylation, compound 1 uM; for inhibition at 0.25 µM / inhibition at 0.5 µM: HEK293, tau phosphorylation; for inhibition at 0.25 µM: compound 0.25 uM; for inhibition at 0.5 µM: compound 0.5 uM
Description: An inhibitory effect on tau phosphorylation was determined using the ClariCELL™ Kinase Cell-Based Assay service (commercially available from CamaBio USA, Inc.). Human embryonic kidney (HEK 293) cells temporarily expressing human DYRK1A and tau were exposed to the compound, and then lysed to release cell proteins. In this case, the released tau was captured on a plate, and a degree of phosphorylation was quantified by ELISA using a tau phosphorylation-specific antibody.

Row | IC50 (human GST-DYRK1A) | IC50 (human GST-CLK1) | IC50 (LRRK2) | IC50 (LRRK2 (G2019S)) | SMILES | inhibition at 0.5 µM (IL-6) | inhibition at 0.5 µM (TNF-α) | inhibition at 1 µM (human DYRK1A and tau) | inhibition at 0.25 µM (human DYRK1A and tau) | inhibition at 0.5 µM (human DYRK1A and tau)
1 | < 100 nM | < 100 nM | < 100 nM | < 100 nM | CCNc1nc(Nc2ccc(C(=O)N3CCOCC3)c3c2OCO3)nc2[nH]cc(C(F)(F)F)c12 [Example 212, (7-((4-(ethylamino)-5-(trifluoromethyl)-7H-pyrrolo[2,3-d]pyrimidin-2-yl)amino)benzo[d][1,3]dioxol-4-yl)(morpholino)methanone] | 12.6% |  |  |  | 
2 | < 100 nM | < 100 nM | < 100 nM | < 100 nM | CCNc1nc(Nc2ccc(C(=O)N3CCC(N4CCOCC4)CC3)c3c2OCO3)nc2[nH]cc(C(F)(F)F)c12 [Example 213, (7-((4-(ethylamino)-5-(trifluoromethyl)-7H-pyrrolo[2,3-d]pyrimidin-2-yl)amino)benzo[d][1,3]dioxol-4-yl)(4-morpholinopiperidin-1-yl)methanone] | 32.4% | 11.5% |  |  | 
3 | < 100 nM | < 100 nM | < 100 nM | < 100 nM | CNc1nc(Nc2ccc(C(=O)N3CCC(N4C[C@@H]5C[C@H]4CO5)CC3)c3c2OCC3)nc2[nH]cc(C(F)(F)F)c12 [Example 230, (4-((1S,4S)-2-oxa-5-azabicyclo[2.2.1]heptan-5-yl)piperidin-1-yl)(7-((4-(methylamino)-5-(tifluoromethyl)-7H-pyrrolo[2,3-d]pyrimidin-2-yl)amino)-2,3-dihydrobenzofuran-4-yl)methanone] | 34% | 1% |  |  | 
4 | < 100 nM | < 100 nM | < 100 nM | < 100 nM | CNc1nc(Nc2ccc(C(=O)N3CC[C@@H](N4CCOCC4)C3)c3c2OCC3)nc2[nH]cc(C(F)(F)F)c12 [Example 237, (R)-(7-((4-(methylamino)-5-(trifluoromethyl)-7H-pyrrolo[2,3-d]pyrimidin-2-yl)amino)-2,3-dihydrobenzofuran-4-yl)(3-morpholinopyrrolidin-1-yl)methanone] | 41.1% | 18.9% |  |  | 
5 | < 100 nM | < 100 nM |  |  | CCCNc1nc(Nc2ccc(C(=O)N3CCC(N4CCOCC4)CC3)c3c2OCC3)nc2[nH]cc(C#N)c12 [Example 349, 2-((4-(4-morpholino-piperidine-1-carbonyl)-2,3-dihydro-benzofuran-7-yl)amino)-4-(propylamino)-7H-pyrrolo[2,3-d]pyrimidine-5-carbonitrile] | 32.9% | 36.7% | 53.4% | 21% | 37%
6 | < 100 nM | < 100 nM | < 100 nM | < 100 nM | COCCNc1nc(Nc2ccc(C(=O)N3CCC(N4CCOCC4)CC3)c3c2OCCO3)nc2[nH]cc(C(F)(F)F)c12 [Example 366, (8-((4-((2-methoxyethyl)amino)-5-(trifluoromethyl)-7H-pyrrolo[2,3-d]pyrimidin-2-yl)amino)-2,3-dihydrobenzo[b] [1,4]dioxin-5-yl) (4-morpholino-piperidin-1-yl)methanone] | 1.1% | 19.2% |  |  | 
7 | < 100 nM | < 100 nM | < 100 nM |  | COCCNc1nc(Nc2ccc(C(=O)N3C[C@@H]4C[C@H]3CO4)c3c2OCCO3)nc2[nH]cc(C(F)(F)F)c12 [Example 410, ((LS,4S)-2-oxa-5-azabicyclo[2.2.1]heptan-5-yl)(8-((4-((2-methoxy-ethyl)amino)-5-(trifluoromethyl)-7H-pyrrolo[2,3-d]pyrimidin-2-yl)amino)-2,3-dihydrobenzo[b] [1,4]dioxin-5-yl)methanone] | 17.8% |  |  |  | 
8 | < 100 nM | < 100 nM |  | < 100 nM | O=C(c1ccc(Nc2nc(N[C@@H]3CCOC3)c3c(C(F)(F)F)c[nH]c3n2)c2c1OCCO2)N1CCN(C2COC2)CC1 [Example 416, (R)-(4-(oxetan-3-yl)piperazin-1-yl)(8-((4-((tetrahydrofuran-3-yl)amino)-5-(trifluoromethyl)-7H-pyrrolo[2,3-d]pyrimidin-2-yl)amino)-2,3-dihydrobenzo[b] [1,4]dioxin-5-yl)methanone] | 45.6% | 8.1% | 86.8% | 54.2% | 75.9%
9 | < 100 nM | < 100 nM | < 100 nM |  | O=C(c1ccc(Nc2nc(NC3CCOCC3)c3c(C(F)(F)F)c[nH]c3n2)c2c1OCCO2)N1CCN(C2COC2)CC1 [Example 420, (4-(oxetan-3-yl)piperazin-1-yl)(8-((4-((tetrahydro-2H-pyran-4-yl)amino)-5-(trifluoromethyl)-7H-pyrrolo[2,3-d]pyrimidin-2-yl)amino)-2,3-dihydrobenzo[b] [1,4]dioxin-5-yl)methanone] | 20.2% | 31.6% |  |  | 
10 | < 100 nM | < 100 nM |  |  | COCCNc1nc(Nc2ccc(C(=O)N3CCOCC3)c3c2OCC3)nc2[nH]cc(C(F)(F)F)c12 [Example 442, (7-((4-((2-methoxyethyl)amino)-5-(trifluoromethyl)-7H-pyrrolo[2,3-d]pyrimidin-2-yl)amino)-2,3-dihydrobenzo-furan-4-yl) (morpholino) methanone] | 31.4% | 1.9% | 80.8% | 45% | 51.5%
11 | 101 to 300 nM | < 100 nM | < 100 nM | < 100 nM | CC(C)CNc1nc(Nc2ccc(C(=O)N3CCC(N4CCOCC4)CC3)c3c2OCC3)nc2[nH]cc(C(F)(F)F)c12 [Example 448, (7-((4-(iso-butylamino)-5-(trifluoromethyl)-7H-pyrrolo[2,3-d]pyrimidin-2-yl)amino)-2,3-dihydrobenzo-furan-4-yl)(4-morpho-linopiperidin-1-yl)methanone] | 26.2% | 17.7% |  |  | 
12 | < 100 nM | < 100 nM |  |  | CC(C)Nc1nc(Nc2ccc(C(=O)N3CCC(N4CCOCC4)CC3)c3c2OCC3)nc2[nH]cc(C(F)(F)F)c12 [Example 450, (7-((4-(isopropylamino)-5-(trifluoromethyl)-7H-pyrrolo[2,3-d]pyrimidin-2-yl)amino)-2,3-dihydrobenzo-furan-4-yl)(4-morpho-linopiperidin-1-yl)methanone] | 11.4% | 7.5% | 84.9% | 37.2% | 66.8%
13 | < 100 nM | < 100 nM | < 100 nM | < 100 nM | CCNc1nc(Nc2ccc(C(=O)N3CC[C@@H](N4CCOCC4)C3)c3c2OCC3)nc2[nH]cc(C(F)(F)F)c12 [Example 476, (R)-(7-((4-(ethylamino)-5-(trifluoromethyl)-7H-pyrrolo[2,3-d]pyrimidin-2-yl)amino)-2,3-dihydrobenzo-furan-4-yl)(3-morpholino-pyrrolidin-1-yl)methanone] | 47.4% | 24.5% |  |  | 
